The values below come from patent US8624027B2, “Combination therapy for treating cancer and diagnostic assays for use therein” (AbbVie Inc., priority 2005, dated 2014).

Data set [1] concerns NCI-H146 human small cell lung carcinoma cells. Nature of the data set: Cellular efficacy in human tumor cell line (MTS viability assay). The conditions noted are these: 10% human serum, 48 hours. It is filed as cell-based. On the procedure:
NCI-H146 (ATCC, Manassas, Va.) human small cell lung carcinoma cells were plated 50,000 cells per well in 96-well tissue culture plates in a total volume of 100 μL tissue culture medium supplemented with 10% human serum (Invitrogen, Carlsbad, Calif.) instead of fetal bovine serum and treated with a 2-fold serial dilution of the compounds of interest from 10 μM to 0.020 μM. Each concentration was tested in duplicate at least 3 separate times. The number of viable cells following 48 hours of compound treatment was determined using the CellTiter 96® AQueous non-radioactive cell proliferation MTS assay according to manufacturer's recommendations (Promega Corp., Madison, Wis.).
Background: Tetrazolium assays rely on reduction of a dye to a coloured formazan, in cell work by metabolically active cells.

Data set [2] addresses T1, Bcl-2 protein (Homo sapiens, UniProt P10415, DELINS35-91DVEENRTEAPEGTESE, form not given).
T1 construct: fused on or other part: A short piece of the Bcl-xL (Q07817) loop replaces Bcl-2 loop residues 35-91; The C-terminal membrane anchor is absent
In words: Bcl-2 binding affinity, fluorescence polarization with fluorescein-labeled BAX peptide. As to conditions: Wang's equation, read-out: Target Binding Affinity Ki (Bcl-2).

The target in data set [3] is Bcl-XL protein (Homo sapiens, UniProt Q07817). Nature of the data set: Bcl-XL binding affinity, fluorescence polarization with fluorescein-labeled BAD peptide. The conditions noted are these: Wang's equation, read-out: Target Binding Affinity Ki (Bcl-XL). (Fluorescence polarisation rises when a labelled molecule tumbles more slowly, as on binding a larger partner.)
Data set [4] can be described thus: Pharmacokinetic evaluation in rat. It is filed as in vivo. As to conditions: male, Sprague-Dawley, plasma; for AUC(0-inf): single 5 mg/kg oral dose, Table 1, read-out: Pharmacokinetic area under the plasma concentration Curve (rat) AUC0-∞; for AUC / Cmax: 5 mg/kg, oral. On the procedure: The pharmacokinetic behavior of compounds of this disclosure was determined following a single 2 mg/kg intravenous or 5 mg/kg oral dose in male Sprague-Dawley derived rats (n=3 per group). The compounds were prepared as 2 mg/mL solution in a 10% DMSO in PEG-400 formulation for both oral and intravenous administration. The 1 mL/kg intravenous dose was administered as a slow bolus (about 1-2 minutes) in the jugular vein of a rat under light ether anesthetic. The oral dose was administered by gavage. Serial blood samples were obtained from a tail vein of each rat prior 0.1 (IV only), 0.25, 0.5, 1, 1.5, 2, 3, 4, 6, 8 and 24 hours after dosing. The heparinized samples were thoroughly mixed and placed in an ice bath. Plasma was separated by centrifugation and stored frozen prior to analysis.
The compounds of interest were separated from the plasma using protein precipitation with acetonitrile. A plasma (100-200 μL, sample or spiked standard) aliquot was combined with 50 μL of internal standard (structurally related analog prepared in acetonitrile) and 1 ml acetonitrile in a 96-well polypropylene deep well plate. The plates were vortexed for 30 seconds followed by centrifugation (3500 rpm×15 minutes, 4° C.). In an automated manner, the supernatant was transferred to a clean 96-well plate. The samples were evaporated to near dryness on a Micro-Vap™ under a stream of dry nitrogen over low heat (˜37° C.). The samples were reconstituted vortexing with 0.2 mL 5% DMSO in acetonitrile. A 0.1-0.2 ml aliquot of acetonitrile: 0.1% trifluoroacetic acid (20:80, by volume) was added to each well, followed by an additional 30 second vortexing. The plates were centrifuged (3500 rpm×15 minutes, 4° C.) prior to HPLC-MS/MS analysis. Samples were analyzed simultaneously with spiked plasma standards. All samples from each study were analyzed as a single batch on the LC-MS/MS.
The compounds of interest and the internal standard were separated from each other and co-extracted contaminants on a 50×3 mm Keystone Betasil CN 5 μm column with an acetonitrile: 0.1% trifluoroacetic acid mobile phase (50:50, by volume) at a flow rate of 0.7 ml/min. Analysis was performed on a Sciex API 300™ Biomolecular Mass Analyzer using a heated nebulizer interface. Peak areas of the title compounds and internal standards were determined using the Sciex MacQuan™ software. Calibration curves were derived from peak area ratio (parent drug/internal standard) of the spiked rat plasma standards using least squares linear regression of the ratio versus the theoretical concentration. The methods were generally linear over the range of the standard curve (correlation coefficients >0.99) with an estimated quantitation limit of 0.01 μg/mL. The plasma concentration data for each animal were submitted to multi-exponential curve fitting using WinNonlin. The area under the plasma concentration-time curve from 0 to t hours (time of the last measurable plasma concentration) after dosing (AUC0-t) was calculated using the linear trapezoidal rule for the plasma concentration-time profiles. The residual area extrapolated to infinity, determined as the final measured plasma concentration (Ct) divided by the terminal elimination rate constant (β), was added to AUC0-t to produce the total area under the curve (AUC0-∞). Ki values shown in the tables below were determined using Wang's equation (Wang Z X., An Exact Mathematical Expression For Describing Competitive Binding Of Two Different Ligands To A Protein Molecule. FEBS Lett. 1995; 360:111-4)).

[5] abbreviates: NCI-H146, Table 1, read-out: NCI-H146 Cellular Efficacy EC50.
Where [6] appears, read: NCI-H146, Table 2, read-out: NCI-H146 Cellular Efficacy H146, EC50.
Setting [7] is: Table 2, read-out: Pharmacokinetic area under the plasma concentration curve (rat) AUC.
Setting [8] is: Table 2, read-out: Pharmacokinetic peak plasma concentration (rat) Cmax.
Setting [9] is: NCI-H146, Table 3, read-out: NCI-H146 Cellular Efficacy H146 EC50.
[10] abbreviates: Table 3, read-out: Pharmacokinetic area under the plasma concentration Curve (rat) AUC.
The mark [11] stands for this setting: Table 3, read-out: Pharmacokinetic peak plasma concentration (rat) Cmax.

Where two headings read alike, the source gives them in different places.

Bcl-XL protein, sequence (Q07817 with tags, fused parts or gaps DEL45-84): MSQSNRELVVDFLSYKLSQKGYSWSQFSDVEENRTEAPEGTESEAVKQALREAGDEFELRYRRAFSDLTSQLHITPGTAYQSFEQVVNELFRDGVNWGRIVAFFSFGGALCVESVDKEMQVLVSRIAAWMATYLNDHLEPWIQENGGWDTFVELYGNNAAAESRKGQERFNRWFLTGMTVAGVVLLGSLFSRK
T1 sequence (P10415 with tags, fused parts or gaps with the stated changes): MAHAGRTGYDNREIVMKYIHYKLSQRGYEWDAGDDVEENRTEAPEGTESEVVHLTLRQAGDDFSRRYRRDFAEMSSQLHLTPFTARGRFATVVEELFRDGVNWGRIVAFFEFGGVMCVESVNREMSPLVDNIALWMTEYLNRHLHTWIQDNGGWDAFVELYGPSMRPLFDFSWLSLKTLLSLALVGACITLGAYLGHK

As usually defined, the EC50 is the concentration that produces a half-maximal response. The term Ki denotes the dissociation constant of the complex between target and ligand, obtained from inhibition or displacement. For `CC1(C)CCC(CN2CCN(c3ccc(C(=O)NS(=O)(=O)c4ccc(N[C@H](CCN5CCOCC5)CSc5ccccc5)c(S(=O)(=O)C(F)(F)Cl)c4)cc3)CC2)=C(c2ccc(Cl)cc2)C1` [Example 2, 3-((chloro(difluoro)methyl)sulfonyl)-N-(4-(4-((2-(4-chlorophenyl)-4,4-dimethylcyclohex-1-en-1-yl)methyl)piperazin-1-yl)benzoyl)-4-(((1R)-3-(morpholin-4-yl)-1-((phenylsulfanyl)methyl)propyl)amino)benzenesulfonamide], the EC50 in data set [1] (setting [5]) is 29.1 nM. In addition, the Ki in data set [2] and in data set [3] was not above 1 nM each time. Besides, the AUC(0-inf) in data set [4] was 7.01 µM·h.

In the case of `CN(C)CC[C@H](CSc1ccccc1)Nc1ccc(S(=O)(=O)NC(=O)c2ccc(N3CCN(CC4=C(c5ccc(Cl)cc5)CCCCC4)CC3)cc2)cc1S(=O)(=O)C(F)(F)F` [Example 17, N-(4-(4-((2-(4-chlorophenyl)cyclohept-1-en-1-yl)methyl)piperazin-1-yl)benzoyl)-4-(((1R)-3-(dimethylamino)-1-((phenylsulfanyl)methyl)propyl)amino)-3-((trifluoromethyl)sulfonyl)benzenesulfonamide], the EC50 in data set [1] (setting [5]) amounted to 28.7 nM. For the same compound, the inhibitory constant (Ki) in data set [2] and in data set [3] was not above 1 nM each time. In data set [4], the AUC(0-inf) amounted to 0.88 µM·h.

Regarding `O=C(NS(=O)(=O)c1ccc(N[C@H](CCN2CC3CC2CO3)CSc2ccccc2)c(S(=O)(=O)C(F)(F)Cl)c1)c1ccc(N2CCN(CC3=C(c4ccc(Cl)cc4)CCCCC3)CC2)cc1` (stereo partly drawn) [Example 13, 3-((chloro(difluoro)methyl)sulfonyl)-N-(4-(4-((2-(4-chlorophenyl)cyclohept-1-en-1-yl)methyl)piperazin-1-yl)benzoyl)-4-(((1R)-3-(2-oxa-5-azabicyclo[2.2.1]hept-5-yl)-1-((phenylsulfanyl)methyl)propyl)amino)benzenesulfonamide], in data set [1] (setting [5]), the EC50 came to 19 nM. In addition, the Ki in data set [2] and in data set [3] was not above 1 nM throughout. In addition, the AUC(0-inf) in data set [4] was found to be 2.06 µM·h.

As for `CC1(C)CCC(CN2CCN(c3ccc(C(=O)NS(=O)(=O)c4ccc(N[C@H](CCN5CCCC5)CSc5ccccc5)c(S(=O)(=O)C(F)(F)F)c4)cc3)CC2)=C(c2ccc(Cl)cc2)C1` [Example 34, N-(4-(4-((2-(4-chlorophenyl)-4,4-dimethylcyclohex-1-en-1-yl)methyl)piperazin-1-yl)benzoyl)-4-(((1R)-1-((phenylsulfanyl)methyl)-3-(pyrrolidin-1-yl)propyl)amino)-3-((trifluoromethyl)sulfonyl)benzenesulfonamide], the EC50 in data set [1] (setting [5]) stood at 20 nM. Also, the Ki in data set [2] and in data set [3] was not above 1 nM throughout. Also, the AUC(0-inf) in data set [4] stood at 11.1 µM·h.

On to `CC(C)N(C)CC[C@H](CSc1ccccc1)Nc1ccc(S(=O)(=O)NC(=O)c2ccc(N3CCN(CC4=C(c5ccc(Cl)cc5)CC(C)(C)CC4)CC3)cc2)cc1S(=O)(=O)C(F)(F)Cl` [Example 22, 3-((chloro(difluoro)methyl)sulfonyl)-N-(4-(4-((2-(4-chlorophenyl)-4,4-dimethylcyclohex-1-en-1-yl)methyl)piperazin-1-yl)benzoyl)-4-(((1R)-3-(isopropyl(methyl)amino)-1-((phenylsulfanyl)methyl)propyl)amino)benzenesulfonamide], for which the EC50 in data set [1] (setting [5]) worked out at 38.8 nM. Moreover, the Ki in data set [2] and in data set [3] was not above 1 nM in each case. For the same compound, in data set [4], the AUC(0-inf) came to 4.08 µM·h.

Turning to `CN(C)CC[C@H](CSc1ccccc1)Nc1ccc(S(=O)(=O)NC(=O)c2ccc(N3CCN(CC4=C(c5ccc(Cl)cc5)CC(C)(C)CC4)CC3)cc2)cc1S(=O)(=O)C(F)(F)Cl` [Example 28, 3-((chloro(difluoro)methyl)sulfonyl)-N-(4-(4-((2-(4-chlorophenyl)-4,4-dimethylcyclohex-1-en-1-yl)methyl)piperazin-1-yl)benzoyl)-4-(((1R)-3-(dimethylamino)-1-((phenylsulfanyl)methyl)propyl)amino)benzenesulfonamide], the Ki in data set [2] and in data set [3] was not above 1 nM each time.

Regarding `CN(C)CC[C@H](CSc1ccccc1)Nc1ccc(S(=O)(=O)NC(=O)c2ccc(N3CCN(Cc4ccccc4-c4ccc(Cl)cc4)CC3)cc2)c(F)c1C(F)(F)F` [D, reference compound], the EC50 in data set [1] (setting [6]) stood at 7330 nM. Further, the AUC in data set [4] (setting [7]) was 3.83 µM·h. Further, the Cmax in data set [4] (setting [8]) was found to be 386 nM.

Take `CN(C)CC[C@H](CSc1ccccc1)Nc1ccc(S(=O)(=O)NC(=O)c2ccc(N3CCN(CC4=C(c5ccc(Cl)cc5)CCCC4)CC3)cc2)cc1C(F)(F)F` [H, reference compound]: the EC50 in data set [1] (setting [9]) worked out at 410 nM. Also, the AUC in data set [4] (setting [10]) turned out to be 1.97 µM·h. Also, the Cmax in data set [4] (setting [11]) is 215 nM.

As for `CN(C)CC[C@H](CSc1ccccc1)Nc1ccc(S(=O)(=O)NC(=O)c2ccc(N3CCN(Cc4ccccc4-c4ccc(Cl)cc4)CC3)cc2)cc1[N+](=O)[O-]` [B, reference compound], the concentration for a half-maximal effect (EC50) in data set [1] (setting [6]) was determined as 63 nM. The AUC in data set [4] (setting [7]) was 0.283 µM·h. Moreover, in data set [4] (setting [8]), the Cmax was found to be 39 nM.

As to `CN(C)CC[C@H](CSc1ccccc1)Nc1ccc(S(=O)(=O)NC(=O)c2ccc(N3CCN(Cc4ccccc4-c4ccc(Cl)cc4)CC3)cc2)cc1C(F)(F)F` [A, reference compound], the EC50 in data set [1] (setting [6]) amounted to 1600 nM. In addition, the AUC in data set [4] (setting [7]) came to 4.41 µM·h. In data set [4] (setting [8]), the Cmax amounted to 371 nM.

On to `CN(C)CC[C@H](CSc1ccccc1)Nc1ccc(S(=O)(=O)NC(=O)c2ccc(N3CCN(CC4=C(c5ccc(Cl)cc5)CCCC4)CC3)cc2)cc1[N+](=O)[O-]` [G, reference compound], for which, in data set [1] (setting [9]), the EC50 came to 26 nM. Further, in data set [4] (setting [10]), the AUC turned out to be 0.507 µM·h. In addition, in data set [4] (setting [11]), the Cmax was determined as 57 nM.

In the case of “3-((chloro(difluoro)methyl)sulfonyl)-N-(4-(4-((2-(4-chlorophenyl)-4,4-dimethylcyclohex-1-en-1-yl)methyl)piperazin-1-yl)benzoyl)-4-(((1R)-3-(dimethylamino)-1-((phenylsulfanyl)methyl)propyl)amino)benzenesulfonamide [Example 28]”, the EC50 in data set [1] (Table 1, read-out: NCI-H146 Cellular Efficacy EC50) came out at 24.2 nM.

In the case of `CN(C)CC[C@H](CSc1ccccc1)Nc1ccc(S(=O)(=O)NC(=O)c2ccc(N3CCN(Cc4ccccc4-c4ccc(Cl)cc4)CC3)cc2)cc1C#N` [C, reference compound], the EC50 in data set [1] (setting [6]) stood at 1810 nM. The AUC in data set [4] (setting [7]) was 1.92 µM·h. For the same compound, in data set [4] (setting [8]), the Cmax is 315 nM.
